Values after ≈ are worked out from the molar mass of the structure shown. Active and inactive are the calls of the source. No cut-off for these calls is given here.
What was measured:
[1] = molecular target: T1, Ceramide glucosyltransferase (Homo sapiens, UniProt Q16739); test: Inhibition of human GCS using C8-ceramide and UDP-glucose as substrate incubated for 1 hr by RapidFire mass spectrometry
T1 sequence (Q16739 whole entry): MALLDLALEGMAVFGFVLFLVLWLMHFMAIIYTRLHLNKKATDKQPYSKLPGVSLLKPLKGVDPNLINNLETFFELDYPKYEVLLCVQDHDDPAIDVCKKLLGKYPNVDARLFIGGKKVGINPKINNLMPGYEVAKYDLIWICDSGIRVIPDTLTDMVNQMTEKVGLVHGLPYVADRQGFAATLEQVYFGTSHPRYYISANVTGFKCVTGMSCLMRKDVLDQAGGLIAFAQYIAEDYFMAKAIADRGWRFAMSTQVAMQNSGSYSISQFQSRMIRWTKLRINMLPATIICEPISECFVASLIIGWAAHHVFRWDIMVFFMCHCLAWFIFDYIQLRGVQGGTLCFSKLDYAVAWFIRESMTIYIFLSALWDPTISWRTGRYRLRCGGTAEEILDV

[2] = 1-Octanol/aqueous buffer partition coefficient, logD of the compound at pH 7.4 by chromatographic method; assay type: physicochemical
hERG = hERG (Homo sapiens, UniProt Q12809); test: Inhibition of hERG expressed in CHO-K1 cells at 10 uM incubated for 5 mins by whole cell-automated voltage clamp analysis; assay type: toxicity, cell-based; details: CHO-K1 cells expressing hERG
Chain of hERG (Q12809 whole entry): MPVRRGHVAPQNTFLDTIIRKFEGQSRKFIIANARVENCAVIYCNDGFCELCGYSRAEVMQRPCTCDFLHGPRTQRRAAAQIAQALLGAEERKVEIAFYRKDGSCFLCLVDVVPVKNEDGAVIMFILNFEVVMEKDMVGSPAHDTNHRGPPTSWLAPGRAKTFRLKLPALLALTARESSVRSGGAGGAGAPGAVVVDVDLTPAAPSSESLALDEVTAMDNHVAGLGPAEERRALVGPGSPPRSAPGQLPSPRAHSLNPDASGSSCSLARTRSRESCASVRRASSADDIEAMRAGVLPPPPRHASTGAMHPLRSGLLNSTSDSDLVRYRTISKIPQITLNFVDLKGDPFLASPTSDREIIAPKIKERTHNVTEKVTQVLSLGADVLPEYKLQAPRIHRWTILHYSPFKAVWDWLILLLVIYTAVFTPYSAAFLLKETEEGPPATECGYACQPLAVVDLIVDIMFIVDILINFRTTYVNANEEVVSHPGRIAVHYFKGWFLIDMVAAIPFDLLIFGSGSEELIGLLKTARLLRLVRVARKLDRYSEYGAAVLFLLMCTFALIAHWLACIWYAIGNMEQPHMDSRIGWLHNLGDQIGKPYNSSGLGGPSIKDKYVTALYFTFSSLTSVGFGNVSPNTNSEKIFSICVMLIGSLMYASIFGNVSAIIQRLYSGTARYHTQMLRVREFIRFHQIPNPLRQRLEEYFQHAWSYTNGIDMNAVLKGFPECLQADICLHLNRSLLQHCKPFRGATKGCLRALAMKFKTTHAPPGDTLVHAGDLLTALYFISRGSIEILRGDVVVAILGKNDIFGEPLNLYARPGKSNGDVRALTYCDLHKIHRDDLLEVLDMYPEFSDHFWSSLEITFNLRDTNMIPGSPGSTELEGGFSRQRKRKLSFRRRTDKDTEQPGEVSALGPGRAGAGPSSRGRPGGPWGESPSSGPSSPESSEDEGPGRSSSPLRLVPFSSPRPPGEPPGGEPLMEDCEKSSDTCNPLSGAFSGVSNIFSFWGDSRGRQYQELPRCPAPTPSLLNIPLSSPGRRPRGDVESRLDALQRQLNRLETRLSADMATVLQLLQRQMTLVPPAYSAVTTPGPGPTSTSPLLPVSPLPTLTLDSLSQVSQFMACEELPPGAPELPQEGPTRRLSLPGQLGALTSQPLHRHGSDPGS

[3] = Efflux ratio of apparent permeability from basolateral to apical side over apical to basolateral side in dog MDCK-MDR1 cells at 1 uM measured after 1 hr by LC-MS/MS analysis; assay type: ADME, cell-based, Canis lupus familiaris
[4] = molecular target: T2, Ceramide glucosyltransferase (Homo sapiens) (UniProt Q16739); test: Uncompetitive inhibition of GCS (unknown origin) using 1 to 70 uM C8-ceramide and 0.1 to 200 uM UDP-glucose as substrate incubated for 1 hr by RapidFire mass spectrometry
T2 sequence (whole entry): T1 sequence (Q16739 whole entry)

[5] = Kinetic solubility of the compound in JP2 fluid at pH 6.8 by precipitation method; assay type: physicochemical; details: read-out: Kinetic_solubility
[6] = Intrinsic clearance in mouse liver microsomes at 1 uM in presence of NADPH generating system assessed per mg protein by LC-MS/MS analysis; assay type: ADME, Microsome; details: read-out: CLH

Structure (SMILES)	IC50 [1] [µM]	chromatographic logD [2]	efflux ratio at 1 h, 1 µM [3]	inhibition [4]	solubility kinetic [5] [µg/mL]	microsomal CLint at 1 µM [6] [µL/min/mg]	inhibition at 5 min, 10 µM (hERG) [%]
CCCCCCCC(=O)N[C@H](CN1CCCC1)[C@H](O)c1ccc2c(c1)OCCO2				Active			
COc1cc(F)ccc1-c1nccc2c1CN(c1ccc(F)cc1)C2=O	4.9					131	
COc1ccccc1-c1ccnc2c1CN(c1ccccc1)C2=O	17	2.81			4 (≈ 12.6 µM)		
COc1cccc(-c2nccc3c2CN(c2ccccc2)C3=O)c1	> 100					> 768	
O=C1c2ccnc(-c3ccccc3)c2CN1c1ccccc1	> 100					> 768	
COc1ccccc1-c1nccc2c1CN(C1CCCCC1)C2=O	> 100					727	
COc1ccccc1-n1ncc2c1CN(c1ccccc1)C2=O	4.4	2.45			22 (≈ 72.1 µM)		
CC(C)(O)c1ccc(NC(=O)c2cccc(-c3ccccc3OCC(F)(F)F)c2)cc1	3.2	3.16	3				
COc1ccccc1-c1ccc2c(c1)CN(c1ccccc1)C2=O	> 100						
COc1ccccc1-c1nccc2c1CN(c1cccc(C)c1)C2=O	4.4					584	
COc1ccccc1-c1nccc2c1CN(c1ccccc1C)C2=O	> 100					560	

Now from value to compound, other results behind:

IC50 [1] [µM]	chromatographic logD [2]	efflux ratio at 1 h, 1 µM [3]	inhibition [4]	solubility kinetic [5] [µg/mL]	microsomal CLint at 1 µM [6] [µL/min/mg]	Structure (SMILES)	inhibition at 5 min, 10 µM (hERG) [%]
0.04	2.67	7.3				CC(C)(O)COc1ccc(N2Cc3c(ccnc3-c3ccc(F)cc3OCC(F)(F)F)C2=O)cc1	17.6
0.045	3.06	1.9				CC(C)(O)c1ccc(NC(=O)c2cccc(-c3ccccc3OCC(F)(F)F)c2F)cc1	
2.4	3.87			< 0.1		COc1ccccc1-c1cccc2c1CN(c1ccccc1)C2=O	
1.3	2.94			0.9 (≈ 2.84 µM)		COc1ccccc1-c1cncc2c1CN(c1ccccc1)C2=O	
0.7	1.99	35				CN(C)C(=O)c1ccc(N2Cc3c(ccnc3-c3ccc(F)cc3OCC(F)(F)F)C2=O)cc1	41.8
0.17	3.6	2.2				CC(C)(O)c1ccc(NC(=O)c2cccc(-c3ccccc3OCC(F)(F)F)n2)cc1	
0.019	2.12	15				CC(C)(O)c1ccc(NC(=O)c2cccn(-c3ccccc3OCC(F)(F)F)c2=O)cc1	
0.017	2.86	4				CC(C)(C#N)c1ccc(N2Cc3c(ccnc3-c3ccc(F)cc3OCC(F)(F)F)C2=O)cc1	39.4
0.049	3	2.6		< 0.15	14	O=C1c2ccnc(-c3ccc(F)cc3OC(F)(F)F)c2CN1c1ccc(F)cc1	51.4
0.63	1.86	32				CS(=O)(=O)c1ccc(N2Cc3c(ccnc3-c3ccc(F)cc3OCC(F)(F)F)C2=O)cc1	23.7
0.049	2.55	6.6				CC(C)(O)c1ccc(NC(=O)c2ccnn(-c3ccc(F)cc3OCC(F)(F)F)c2=O)cc1	
0.097					> 768	COc1ccccc1-c1nccc2c1CN(c1ccc(C)cc1)C2=O	
1					509	COc1ccccc1-c1nccc2c1CN(c1ccc(F)cc1)C2=O	
1.9	2.84			18 (≈ 56.9 µM)	> 768	COc1ccccc1-c1nccc2c1CN(c1ccccc1)C2=O	

Source: ChEMBL document CHEMBL5046282, “Discovery of Brain-Penetrant Glucosylceramide Synthase Inhibitors with a Novel Pharmacophore” (J Med Chem, 2022)
